Tested on: Puccinia recondita
Assay: Curative activity against brown rust of wheat (Puccrt K1), potted wheat seedlings cultivar Kanzler
Assay type: in vivo
Conditions: efficacy in % of untreated control, sprayed 1 day after inoculation, rated after 7 days, read-out: Observed activity (%)
Method: The active compounds were prepared separately or jointly as a stock solution with 25 mg of active compound which was made up to 10 ml using a mixture of acetone and/or DMSO and the emulsifier Uniperol® EL (wetting agent having emulsifying and dispersing action based on ethoxylated alkylphenols) in a volume ratio of solvent/emulsifier of 99 to 1. The mixture was then made up to 100 ml with water. This stock solution was diluted with the solvent/emulsifier/water mixture described to the concentration of active compounds stated below.
The visually determined percentages of infected leaf areas or the measured elongation were converted into efficacies in % of the untreated control:
The efficacy (E) is calculated as follows using Abbot's formula: […]
The expected efficacies of mixtures of active compounds were determined using Colby's formula (Colby, S. R. “Calculating synergistic and antagonistic responses of herbicide combinations”, Weeds, 15, pp. 20-22, 1967) and compared with the observed efficacies. […]
Leaves of potted wheat seedlings of the cultivar “Kanzler” were inoculated with a spore suspension of brown rust (Puccinia recondita). […] The extent of the rust fungus development on the leaves was then determined. The visually determined values for the percentage of infected leaf area were initially converted into a mean value and then converted into efficacies in % of the untreated control. […]

| SMILES | inhibition at 60 µg/mL (Conc. 0.06 mg/ml) | inhibition at 250 µg/mL (Conc. 0.25 mg/ml) |
| --- | --- | --- |
| CCOC(=O)C1CC(=O)C(=C(O)C2CC2)C(=O)C1 (centres unmarked) [Trinexapac-ethyl, trinexapac-ethyl] | 0% | – |
| Fc1ccc(C2(Cn3cncn3)OC2c2ccccc2Cl)cc1 (centres unmarked) [Epoxiconazole, epoxiconazole] | – | 11% |
